# Measurements from ChEMBL document CHEMBL1201862, “PubChem BioAssay data set” (2004).
# Active and inactive are the calls of the source.
# Columns and labels:
# [1] = cells; type: functional, cell-based
# [2] = cells; type: functional, cell-based; remark: listed apart in the source
# [3] = molecular target: T1, Protein skinhead-1 (Caenorhabditis elegans, UniProt P34707); type: functional
# T1 sequence (P34707 whole entry): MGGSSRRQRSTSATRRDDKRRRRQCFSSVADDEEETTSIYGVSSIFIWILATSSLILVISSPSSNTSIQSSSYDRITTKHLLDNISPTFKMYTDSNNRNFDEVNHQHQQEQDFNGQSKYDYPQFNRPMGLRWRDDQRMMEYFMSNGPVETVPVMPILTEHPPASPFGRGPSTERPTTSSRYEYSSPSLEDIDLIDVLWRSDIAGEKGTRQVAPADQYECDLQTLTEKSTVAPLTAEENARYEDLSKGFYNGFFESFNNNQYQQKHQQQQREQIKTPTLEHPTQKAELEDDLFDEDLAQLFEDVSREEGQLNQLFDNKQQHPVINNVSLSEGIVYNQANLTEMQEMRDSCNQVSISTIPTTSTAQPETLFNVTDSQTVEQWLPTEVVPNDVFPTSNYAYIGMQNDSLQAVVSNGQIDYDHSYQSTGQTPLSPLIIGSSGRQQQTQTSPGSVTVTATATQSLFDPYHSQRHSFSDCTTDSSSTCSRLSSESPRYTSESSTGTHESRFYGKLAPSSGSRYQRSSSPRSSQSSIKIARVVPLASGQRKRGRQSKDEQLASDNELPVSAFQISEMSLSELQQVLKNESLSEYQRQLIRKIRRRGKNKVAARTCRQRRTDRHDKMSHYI
# [4] = Luminescence Cell-Based Dose Response HTS to Identify Activators of Luciferase Translation or Activity in H4 […] Cells. [Related pubchem assays: 1829 (Project Summary), 1814 (Primary HTS)]; type: functional
# [5] = Luminescence Cell-Based Dose Confirmation HTS to Identify Activators of 5'UTR Stem-Loop Driven Alpha-Synuclein mRNA Translation in H4 Neuroglioblastoma Cells. [Related pubchem assays: 1829 (Project Summary), 1814 (Primary HTS)]; type: functional
# [6] = molecular target: T2, RNA-binding protein pos-1 (Caenorhabditis elegans, UniProt G5EF15); assay: disruptors of C. elegans POS-1 RNA interaction – biochemical, fluorescence polarization, dose response (AID 1964);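 note: purified POS-1 fused to maltose binding protein made in E. coli; potency of compounds blocking POS-1 binding to fluorescent RNA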
# T2 sequence (G5EF15 whole entry): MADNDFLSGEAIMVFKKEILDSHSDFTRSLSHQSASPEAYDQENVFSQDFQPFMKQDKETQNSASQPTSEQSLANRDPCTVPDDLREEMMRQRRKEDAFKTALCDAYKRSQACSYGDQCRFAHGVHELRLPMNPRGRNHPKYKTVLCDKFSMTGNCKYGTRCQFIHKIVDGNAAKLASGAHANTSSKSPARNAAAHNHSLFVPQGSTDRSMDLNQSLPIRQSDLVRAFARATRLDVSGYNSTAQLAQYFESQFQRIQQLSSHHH
# [7] = molecular target: T3, Zinc finger protein mex-5 (Caenorhabditis elegans, UniProt Q9XUB2); assay: potency of MEX-5 RNA-binding blockers – biochemical, C. elegans, fluorescence polarization, dose response (AID 1960)
# T3 sequence (Q9XUB2 whole entry): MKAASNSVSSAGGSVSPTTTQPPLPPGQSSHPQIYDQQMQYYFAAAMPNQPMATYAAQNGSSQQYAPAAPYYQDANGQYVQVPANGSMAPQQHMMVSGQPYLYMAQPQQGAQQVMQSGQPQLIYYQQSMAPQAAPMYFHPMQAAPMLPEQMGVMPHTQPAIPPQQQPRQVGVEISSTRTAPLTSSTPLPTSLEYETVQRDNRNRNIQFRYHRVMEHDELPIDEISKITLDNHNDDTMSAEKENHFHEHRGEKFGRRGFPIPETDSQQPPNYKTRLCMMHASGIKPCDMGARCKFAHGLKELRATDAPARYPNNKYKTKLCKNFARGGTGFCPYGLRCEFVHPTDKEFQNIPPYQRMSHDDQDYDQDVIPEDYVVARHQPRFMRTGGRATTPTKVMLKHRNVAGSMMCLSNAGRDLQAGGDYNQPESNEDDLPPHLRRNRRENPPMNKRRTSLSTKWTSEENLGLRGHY
# [8] = test system: H4; assay: Luminescence Cell-Based Dose Response HTS to Identify Activators of 5'UTR Stem-Loop Driven Prion Protein mRNA Translation in H4 Neuroglioblastoma Cells. [Related pubchem assays: 1829 (Project Summary), 1814 (Primary HTS)]; type: functional; conditions: Homo sapiens
# [9] = molecular target: G-protein coupled receptor 55 (Homo sapiens, UniProt Q9Y2T6); assay: inhibition of LPI-stimulated GPR55 beta-arrestin translocation – imaging, U2OS, beta-arrestin-GFP, LPI agonist, primary screen (AID 2013); type: functional;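 note: antagonist potency measured as reduced agonist-driven arrestin aggregation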
# G-protein coupled receptor 55, sequence (Q9Y2T6 whole entry): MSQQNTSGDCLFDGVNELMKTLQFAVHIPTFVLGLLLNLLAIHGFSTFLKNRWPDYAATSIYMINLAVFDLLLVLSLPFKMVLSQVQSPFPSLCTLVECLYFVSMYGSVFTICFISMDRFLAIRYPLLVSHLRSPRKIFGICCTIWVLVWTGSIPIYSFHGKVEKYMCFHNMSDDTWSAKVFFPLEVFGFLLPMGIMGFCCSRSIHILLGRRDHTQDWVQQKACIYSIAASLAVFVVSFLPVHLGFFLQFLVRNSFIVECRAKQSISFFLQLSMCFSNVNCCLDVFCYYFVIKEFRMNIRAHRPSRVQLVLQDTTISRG
# [10] = molecular target: T4, Fatty acid synthase (Homo sapiens, UniProt P49327); assay: inhibition of human FAS-TE enzyme activity – biochemical, kinetic fluorescence intensity, dose response (AID 624326); type: functional;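 note: rate of fluorescence rise from hydrolysis of a fluorogenic O-methyl fluorescein ester substrate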
# T4 sequence (P49327 whole entry): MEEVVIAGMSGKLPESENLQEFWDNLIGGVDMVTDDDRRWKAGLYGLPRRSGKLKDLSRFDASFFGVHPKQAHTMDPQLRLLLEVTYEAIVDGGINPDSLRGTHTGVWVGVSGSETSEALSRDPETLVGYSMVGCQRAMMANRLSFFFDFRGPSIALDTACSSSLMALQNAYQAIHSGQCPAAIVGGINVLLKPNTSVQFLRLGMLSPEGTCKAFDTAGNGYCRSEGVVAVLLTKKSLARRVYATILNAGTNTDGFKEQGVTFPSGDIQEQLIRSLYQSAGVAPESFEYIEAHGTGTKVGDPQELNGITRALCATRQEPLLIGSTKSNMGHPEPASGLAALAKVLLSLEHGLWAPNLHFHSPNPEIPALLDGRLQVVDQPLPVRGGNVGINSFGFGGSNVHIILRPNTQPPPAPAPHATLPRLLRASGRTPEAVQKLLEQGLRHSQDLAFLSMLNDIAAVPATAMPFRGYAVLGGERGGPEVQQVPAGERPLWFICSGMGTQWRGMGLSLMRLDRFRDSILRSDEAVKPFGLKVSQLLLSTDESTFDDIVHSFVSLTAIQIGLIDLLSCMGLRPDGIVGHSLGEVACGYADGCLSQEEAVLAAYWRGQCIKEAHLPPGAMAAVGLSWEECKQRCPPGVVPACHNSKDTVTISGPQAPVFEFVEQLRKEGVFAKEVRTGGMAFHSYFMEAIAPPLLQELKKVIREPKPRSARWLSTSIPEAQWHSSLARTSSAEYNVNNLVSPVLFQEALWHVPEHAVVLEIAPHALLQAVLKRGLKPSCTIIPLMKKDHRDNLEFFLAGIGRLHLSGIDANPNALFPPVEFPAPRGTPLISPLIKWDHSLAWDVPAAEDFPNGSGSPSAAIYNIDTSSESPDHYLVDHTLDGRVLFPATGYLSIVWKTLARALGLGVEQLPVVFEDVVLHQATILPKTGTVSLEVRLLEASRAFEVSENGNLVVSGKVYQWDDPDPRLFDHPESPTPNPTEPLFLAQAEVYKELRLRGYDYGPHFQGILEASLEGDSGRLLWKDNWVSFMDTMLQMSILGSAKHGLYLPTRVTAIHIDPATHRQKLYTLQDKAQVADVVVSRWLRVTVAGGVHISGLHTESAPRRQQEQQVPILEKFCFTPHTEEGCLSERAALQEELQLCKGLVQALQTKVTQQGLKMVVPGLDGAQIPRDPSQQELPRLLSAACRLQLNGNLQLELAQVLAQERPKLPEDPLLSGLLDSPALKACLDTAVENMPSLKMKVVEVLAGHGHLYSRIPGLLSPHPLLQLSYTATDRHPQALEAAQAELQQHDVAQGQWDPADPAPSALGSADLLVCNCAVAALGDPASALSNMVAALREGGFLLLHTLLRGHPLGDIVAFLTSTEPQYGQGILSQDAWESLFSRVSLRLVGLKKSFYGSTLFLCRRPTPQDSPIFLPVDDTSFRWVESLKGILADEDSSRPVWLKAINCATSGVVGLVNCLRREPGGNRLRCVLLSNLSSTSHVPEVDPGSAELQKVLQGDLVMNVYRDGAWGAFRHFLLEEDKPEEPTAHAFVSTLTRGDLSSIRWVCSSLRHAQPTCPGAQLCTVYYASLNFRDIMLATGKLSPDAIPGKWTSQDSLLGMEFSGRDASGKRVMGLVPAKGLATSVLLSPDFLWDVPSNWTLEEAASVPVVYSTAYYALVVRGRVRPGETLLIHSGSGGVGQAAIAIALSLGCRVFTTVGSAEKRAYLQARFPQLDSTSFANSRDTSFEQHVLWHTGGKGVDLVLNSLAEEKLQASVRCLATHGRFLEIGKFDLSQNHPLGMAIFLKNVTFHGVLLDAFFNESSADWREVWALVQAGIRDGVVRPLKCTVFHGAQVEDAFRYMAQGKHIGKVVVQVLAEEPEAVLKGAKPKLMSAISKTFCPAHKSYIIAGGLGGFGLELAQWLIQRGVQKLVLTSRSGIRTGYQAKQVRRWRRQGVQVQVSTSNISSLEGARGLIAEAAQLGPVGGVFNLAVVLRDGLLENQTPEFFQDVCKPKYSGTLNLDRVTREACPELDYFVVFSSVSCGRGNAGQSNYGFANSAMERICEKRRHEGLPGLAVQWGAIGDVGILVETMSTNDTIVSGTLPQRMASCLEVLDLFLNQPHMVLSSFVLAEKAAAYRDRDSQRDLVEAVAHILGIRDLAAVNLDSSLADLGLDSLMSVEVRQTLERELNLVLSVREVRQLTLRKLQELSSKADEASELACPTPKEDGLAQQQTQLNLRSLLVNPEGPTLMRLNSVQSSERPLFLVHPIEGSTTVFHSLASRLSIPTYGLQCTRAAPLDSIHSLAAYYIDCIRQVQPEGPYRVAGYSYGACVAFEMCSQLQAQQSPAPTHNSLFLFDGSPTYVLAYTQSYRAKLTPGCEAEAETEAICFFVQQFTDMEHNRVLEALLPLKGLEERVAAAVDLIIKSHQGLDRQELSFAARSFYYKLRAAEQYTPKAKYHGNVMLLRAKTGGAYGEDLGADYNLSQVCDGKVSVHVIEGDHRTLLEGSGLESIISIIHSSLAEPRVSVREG
# [11] = molecular target: T4, Fatty acid synthase; assay: inhibition of human FAS-TE enzyme activity – biochemical, endpoint fluorescence intensity, uHTS hits, dose response (AID 624327); type: functional;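 note: fluorescence from hydrolysis of an O-methyl fluorescein acyl ester substrate by the enzyme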
# [12] = molecular target: Cytochrome P450 2C9 (Homo sapiens, UniProt P11712)
# Cytochrome P450 2C9, sequence (P11712 whole entry): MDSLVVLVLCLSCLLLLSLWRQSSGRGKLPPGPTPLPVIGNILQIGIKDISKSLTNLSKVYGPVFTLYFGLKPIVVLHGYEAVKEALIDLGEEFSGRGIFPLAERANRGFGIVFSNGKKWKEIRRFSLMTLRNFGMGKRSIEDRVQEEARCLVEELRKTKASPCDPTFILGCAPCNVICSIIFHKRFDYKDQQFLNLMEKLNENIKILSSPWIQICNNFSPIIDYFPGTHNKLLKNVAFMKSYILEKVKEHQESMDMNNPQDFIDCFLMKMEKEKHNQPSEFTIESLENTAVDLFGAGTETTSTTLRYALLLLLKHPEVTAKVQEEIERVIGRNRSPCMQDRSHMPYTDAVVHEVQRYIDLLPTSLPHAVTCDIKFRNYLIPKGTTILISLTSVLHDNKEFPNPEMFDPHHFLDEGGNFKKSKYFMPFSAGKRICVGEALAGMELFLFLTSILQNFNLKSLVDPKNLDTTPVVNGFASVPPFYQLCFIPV
# [13] = molecular target: Cytochrome P450 2C19 (Homo sapiens, UniProt P33261); assay: Cytochrome panel assay with activity outcomes. Panel member name: p450-cyp2c19 Compounds with AC50 equal or less than 10 uM are considered active; type: functional
# Cytochrome P450 2C19, sequence (P33261 whole entry): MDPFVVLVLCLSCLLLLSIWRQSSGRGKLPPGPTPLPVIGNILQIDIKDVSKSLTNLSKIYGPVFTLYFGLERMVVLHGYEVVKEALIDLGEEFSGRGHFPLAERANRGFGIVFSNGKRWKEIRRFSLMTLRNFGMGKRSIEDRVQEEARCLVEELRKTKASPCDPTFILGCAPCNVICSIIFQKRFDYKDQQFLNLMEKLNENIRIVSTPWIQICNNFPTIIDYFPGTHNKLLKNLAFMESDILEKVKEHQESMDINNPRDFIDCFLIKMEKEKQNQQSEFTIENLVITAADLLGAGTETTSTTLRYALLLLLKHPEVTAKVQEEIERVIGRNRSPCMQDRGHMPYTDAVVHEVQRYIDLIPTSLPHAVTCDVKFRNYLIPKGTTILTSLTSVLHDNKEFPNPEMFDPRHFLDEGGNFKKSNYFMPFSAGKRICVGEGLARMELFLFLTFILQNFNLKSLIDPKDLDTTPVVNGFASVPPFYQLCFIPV
# [14] = molecular target: T5, Cytochrome P450 1A2 (Homo sapiens, UniProt P05177);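 note: PubChem cytochrome P450 panel assay, CYP1A2 panel member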
# T5 sequence (P05177 whole entry): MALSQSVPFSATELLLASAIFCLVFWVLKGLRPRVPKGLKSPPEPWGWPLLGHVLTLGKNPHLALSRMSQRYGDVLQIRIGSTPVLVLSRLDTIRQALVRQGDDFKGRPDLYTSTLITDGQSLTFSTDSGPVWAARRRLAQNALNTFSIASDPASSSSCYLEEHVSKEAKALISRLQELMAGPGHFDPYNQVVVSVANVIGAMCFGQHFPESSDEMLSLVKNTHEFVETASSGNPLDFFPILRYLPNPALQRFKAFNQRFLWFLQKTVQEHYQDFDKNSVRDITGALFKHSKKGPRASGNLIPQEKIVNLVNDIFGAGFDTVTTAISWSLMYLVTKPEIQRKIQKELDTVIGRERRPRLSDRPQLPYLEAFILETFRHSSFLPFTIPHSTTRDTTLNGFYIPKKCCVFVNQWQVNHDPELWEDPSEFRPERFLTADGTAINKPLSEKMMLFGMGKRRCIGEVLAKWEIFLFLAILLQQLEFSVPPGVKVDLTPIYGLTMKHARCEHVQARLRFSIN
# [15] = molecular target: T6, Carboxy-terminal domain RNA polymerase II polypeptide A small phosphatase 1 (Homo sapiens, UniProt Q9GZU7); assay: CTDSP1 inhibitors, concentration-response, biochemical, absorbance readout, ultra-high-throughput screen actives (AID 540297); type: functional
# T6 sequence (Q9GZU7 whole entry): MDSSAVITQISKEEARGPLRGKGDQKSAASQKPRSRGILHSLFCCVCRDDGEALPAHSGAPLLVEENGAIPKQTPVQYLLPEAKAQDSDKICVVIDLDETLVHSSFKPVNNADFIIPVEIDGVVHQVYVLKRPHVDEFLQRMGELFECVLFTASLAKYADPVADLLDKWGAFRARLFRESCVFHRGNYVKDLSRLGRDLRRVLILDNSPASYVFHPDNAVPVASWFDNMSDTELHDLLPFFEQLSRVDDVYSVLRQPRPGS
# [16] = molecular target: T7, Ubiquitin-conjugating enzyme E2 N (Homo sapiens, UniProt P61088); type: functional;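 note: Dose-response confirmation in a TR-FRET assay detecting UBC13-driven polyubiquitin chain formation, inhibition measured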
# T7 sequence (P61088 whole entry): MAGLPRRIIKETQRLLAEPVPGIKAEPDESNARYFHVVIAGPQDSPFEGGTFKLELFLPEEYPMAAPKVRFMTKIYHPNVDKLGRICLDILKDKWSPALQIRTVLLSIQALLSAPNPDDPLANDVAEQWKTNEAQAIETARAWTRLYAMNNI
# [17] = HEK-293T viability loss after treatment – luminescence, T-cell screen hits, cytotoxicity control for TCR NF-kB inhibitor project, dose response (AID 489026); type: functional, cell-based;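 note: cells exposed to compound about 14 hours before the viability readout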
# [18] = molecular target: Cytochrome P450 2D6 (Homo sapiens, UniProt P10635);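 note: CYP2D6 member of a cytochrome P450 panel assay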
# [19] = molecular target: Cytochrome P450 3A4 (Homo sapiens, UniProt P08684);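 note: CYP3A4 tested as one member of a cytochrome P450 panel screen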
# Cytochrome P450 3A4, sequence (P08684 whole entry, the tested form may be a part): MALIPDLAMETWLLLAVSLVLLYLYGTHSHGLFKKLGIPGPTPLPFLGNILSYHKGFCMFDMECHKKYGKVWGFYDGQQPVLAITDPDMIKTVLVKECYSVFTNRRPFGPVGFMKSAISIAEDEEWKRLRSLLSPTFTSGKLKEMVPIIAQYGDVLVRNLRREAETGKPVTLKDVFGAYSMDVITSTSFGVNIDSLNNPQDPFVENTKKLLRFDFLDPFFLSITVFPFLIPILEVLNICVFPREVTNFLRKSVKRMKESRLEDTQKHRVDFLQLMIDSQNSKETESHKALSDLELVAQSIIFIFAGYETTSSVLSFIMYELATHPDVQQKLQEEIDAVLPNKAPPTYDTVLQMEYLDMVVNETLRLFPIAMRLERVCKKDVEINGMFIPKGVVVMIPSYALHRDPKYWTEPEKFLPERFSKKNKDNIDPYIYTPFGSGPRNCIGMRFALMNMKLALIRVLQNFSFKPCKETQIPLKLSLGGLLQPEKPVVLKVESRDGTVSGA
# [20] = molecular target: T8, Polyadenylate-binding protein 1 (Homo sapiens, UniProt P11940); assay: MLLE domain peptide-binding blockers, IC50 – biochemical, fluorescence polarization, FITC-PAM2 peptide, dose response (AID 602259); type: functional; conditions: read-out: IC50_Mean
# T8 sequence (P11940 whole entry, the tested form may be a part): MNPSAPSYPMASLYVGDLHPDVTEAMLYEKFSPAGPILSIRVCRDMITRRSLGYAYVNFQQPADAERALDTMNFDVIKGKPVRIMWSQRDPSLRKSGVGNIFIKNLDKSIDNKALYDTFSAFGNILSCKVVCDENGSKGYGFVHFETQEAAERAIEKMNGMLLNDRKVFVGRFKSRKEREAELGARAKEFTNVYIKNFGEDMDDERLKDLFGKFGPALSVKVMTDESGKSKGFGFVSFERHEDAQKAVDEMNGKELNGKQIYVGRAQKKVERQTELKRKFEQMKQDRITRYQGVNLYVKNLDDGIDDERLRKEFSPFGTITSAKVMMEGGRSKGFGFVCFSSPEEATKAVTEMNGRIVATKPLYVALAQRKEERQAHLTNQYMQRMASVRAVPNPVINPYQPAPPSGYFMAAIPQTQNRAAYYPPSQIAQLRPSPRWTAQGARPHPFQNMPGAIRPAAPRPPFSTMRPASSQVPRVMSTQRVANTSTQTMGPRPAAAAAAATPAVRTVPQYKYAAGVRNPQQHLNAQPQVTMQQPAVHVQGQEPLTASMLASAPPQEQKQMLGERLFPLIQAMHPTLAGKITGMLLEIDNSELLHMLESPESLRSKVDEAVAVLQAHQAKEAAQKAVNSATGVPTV
# [21] = molecular target: T8, Polyadenylate-binding protein 1; assay: MLLE binding blockers, Cy5 peptide tracer – biochemical, fluorescence polarization, Cy5-PAM2 peptide, secondary, miRNA deadenylation inhibitor project, dose response (AID 602260); type: functional; conditions: read-out: IC50_Mean
# [22] = test system: P388/ADR; assay: cells; type: functional; conditions: Mus musculus
# [23] = test system: SN12K1; assay: cells; type: functional; conditions: Homo sapiens
smiles,measurement,setting,value
Cc1ccc(C)c(OCC(=O)N2CCN(Cc3ccc4c(c3)OCO4)CC2)c1,EC50,[1],> 350 µM (not active)
same,EC50,[2],> 350 µM (not active)
Cc1ccc(Cl)cc1N1CCN(CC(O)COCc2ccco2)CC1 (configuration not stated),EC50,[1],> 350 µM (not active)
same,EC50,[2],> 350 µM (not active)
Cc1cc(CC(C)C)n(-c2nc3ccccc3c(=O)n2OCc2ccccc2)n1,IC50,[3],> 100 µM (inactive)
same,EC50,[4],13.5 µM (active)
same,EC50,[5],6.96 µM (active)
same,EC50,[6],> 300 µM (not active)
same,EC50,[7],> 300 µM (not active)
same,EC50,[8],> 120 µM (not active)
CCOC(=O)c1c(N)sc(C(O)(C(F)(F)F)C(F)(F)F)c1-c1ccc(F)cc1,IC50,[9],4.92 µM (active)
O=C(c1cccc(S(=O)(=O)N2CCCC2)c1)c1cccc(S(=O)(=O)N2CCCC2)c1,IC50,[10],6.54 µM (active)
same,IC50,[11],12.1 µM (active)
CN(C)CCNCCN,AC50,[12],inconclusive
same,AC50,[13],inconclusive
COc1ccc(S(=O)(=O)N2CCc3ccccc3C2)cc1OC,AC50,[12],inconclusive
Nc1cc(=O)nc(SCC(=O)Nc2cccc3ccccc23)n1CCc1ccccc1,AC50,[14],17.8 µM (inconclusive)
same,AC50,[12],inconclusive
CCOc1ccccc1NC(=O)Cn1cnc2c(nnn2-c2cccc(OC)c2)c1=O,IC50,[15],10.1 µM (active)
O=C(COc1ccccc1[N+](=O)[O-])Nc1cccc(S(=O)(=O)NC2=NCCCCC2)c1,IC50,[15],9 µM (active)
COC(=O)C1=C(C)N(Cc2ccccc2)C(NCc2ccc(OC)cc2)=N[C@H]1c1cccc(F)c1,IC50,[9],1.46 µM (active)
same,IC50,[16],> 20 µM (inactive)
COc1cccc(C2CC(=O)Nc3cc4c(cc32)CCC4)c1 (configuration not stated),IC50,[17],> 80 µM (inactive)
O=S(=O)(Nc1ccc2c(c1)OCCO2)c1cccc2cccnc12,AC50,[14],5.01 µM (inconclusive)
same,AC50,[18],39.8 µM (inconclusive)
same,AC50,[12],inconclusive
COc1ccc(C(=O)Nc2cccc(-c3ccc4nncn4n3)c2)cc1,EC50,[1],> 350 µM (not active)
same,EC50,[2],> 350 µM (not active)
CCSc1nc(NCCN(C)C)c2c3c(sc2n1)COC(C)(CC)C3 (configuration not stated),EC50,[1],> 350 µM (not active)
same,EC50,[2],> 350 µM (not active)
CCCC(=O)NNC(=O)CCC(=O)NCc1ccccc1,AC50,[12],inconclusive
same,AC50,[13]; read-out: AC50,39.8 µM (inconclusive)
same,AC50,[19],0.0562 µM (inconclusive)
CC(C)(C)C1=CC(O)(c2ccccc2)C=C(C(C)(C)C)C1=O,IC50,[9],18.7 µM (inactive)
Cc1ccc2nc(SCC(=O)Nc3ccc(Br)cc3)nc(=O)n2c1,EC50,[1],> 350 µM (not active)
same,EC50,[2],> 350 µM (not active)
CCc1ccc(NS(=O)(=O)c2cc3c(cc2C)n(C)c(=O)c(=O)n3C)cc1,IC50,[10],2.83 µM (active)
same,IC50,[9],3.39 µM (active)
same,IC50,[11],2.42 µM (active)
CCOc1ccc(N2C(=O)C3C4C=CC(CC4)C3C2=O)c([N+](=O)[O-])c1 (configuration not stated),AC50,[14],25.1 µM (inconclusive)
same,AC50,[12],inconclusive
same,AC50,[19],20 µM (inconclusive)
C=CCN1C(=O)/C(=C2/Sc3ccccc3N2CCCS(=O)(=O)O)SC1=S.c1ccncc1,IC50,[20],> 66 µM (inactive)
same,IC50,[15],5.11 µM (active)
same,IC50,[21],> 66 µM (inactive)
COc1cccc2c1OC[C@@H](CO)[C@H]2N(C)C(=O)Nc1ccc(Cl)cc1Cl,AC50,[12],inconclusive
Cc1nc2scc(-c3ccc(Cl)cc3)c2c(=O)o1,IC50,[10],2.91 µM (active)
same,IC50,[11],1.32 µM (active)
Cc1ccc([N+](=O)[O-])cc1NC(=O)CCCOc1ccccc1,IC50,[10],27.3 µM (inactive)
same,IC50,[11],10.1 µM (active)
O=[N+]([O-])c1ccc(CN2CC(N3CCC(Cc4ccccc4)CC3)CS2(=O)=O)cc1 (configuration not stated),IC50,[10],6.24 µM (active)
same,IC50,[11],9.92 µM (active)
CC(=O)c1ccc(N(C(=O)c2ccco2)C(C(=O)NC2CCCC2)c2ccc(N3CCOCC3)cc2)cc1 (configuration not stated),IC50,[10],12.5 µM (active)
same,IC50,[11],15.5 µM (active)
C=C1C(=O)O[C@@H]2OC3(C)CCC4C(C)CCC1C42OO3 (some centres not stated),GI50,[22],0.294 µM (active)
same,GI50,[23],3.66 µM (inactive)
COc1ccc(/C=C2\SC(=S)N(CCC(=O)Nc3cccc(C(=O)O)c3)C2=O)cc1,IC50,[15],6.38 µM (active)
